According to PMC8856561, “Pharmacological and genetic activation of cAMP synthesis disrupts cholesterol utilization in Mycobacterium tuberculosis” (PLoS Pathogens, 2022):

Key:
Rv1625c = Rv1625c (Mycobacterium tuberculosis, UniProt P9WQ35); experiment: cAMP production in cya- E. coli expressing Rv1625c; type: cell-based; details: cya- E. coli with Rv1625c expression plasmid, 18 hours
Mtb = experiment: microbe, parasite or virus in culture; type: cell-based, Mycobacterium tuberculosis; details: for inhibition of ΔRv1625c mutant: ΔRv1625c strain, cholesterol media

Sequence of Rv1625c (P9WQ35 whole entry, looked up): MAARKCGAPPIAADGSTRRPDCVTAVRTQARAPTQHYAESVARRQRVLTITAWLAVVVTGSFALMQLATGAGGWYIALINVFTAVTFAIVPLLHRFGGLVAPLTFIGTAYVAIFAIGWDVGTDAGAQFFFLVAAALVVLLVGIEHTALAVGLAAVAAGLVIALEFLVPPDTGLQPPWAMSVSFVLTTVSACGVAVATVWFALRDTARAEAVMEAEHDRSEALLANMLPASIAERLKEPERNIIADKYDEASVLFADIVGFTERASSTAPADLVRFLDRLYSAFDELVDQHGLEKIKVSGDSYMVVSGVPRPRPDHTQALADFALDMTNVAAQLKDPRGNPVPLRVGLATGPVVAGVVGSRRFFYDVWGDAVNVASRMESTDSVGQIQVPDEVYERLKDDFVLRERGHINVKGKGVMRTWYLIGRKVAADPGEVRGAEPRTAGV

| SMILES | cAMP levels (Rv1625c) | susceptibility of 2xrv1625c (rv1625c overexpression) strain relative to WT (Mtb; 7H12+cholesterol media) | inhibition of ΔRv1625c mutant (Mtb) |
| --- | --- | --- | --- |
| Cc1nonc1CC(=O)N1CCC(n2nnc(-c3ccc(F)cc3)n2)CC1 [V-59, 1-(4-(5-(4-fluorophenyl)-2H-tetrazol-2-yl)piperidin-1-yl)-2-(4-methyl-1,2,5-oxadiazol-3-yl)ethan-1-one] | increased cAMP levels | ~ 15 fold | refractory |
| Cn1ncnc1CC(=O)N1CCC(c2nc(-c3ccc(Cl)c(Cl)c3)no2)CC1 [mCLB073, 1-(4-(3-(3,4-dichlorophenyl)-1,2,4-oxadiazol-5-yl)-1-piperidinyl)-2-(2-methyl-2H-1,2,4-triazol-3-yl)-1-ethanone] |  |  | refractory |
